# According to the Kinase Knowledgebase extract (Sharma et al. 2016):
# Target: CDK2 (UniProt P24941)
# Experiment: Enzyme Assay
# Conditions: concentration not given here
row,SMILES,inhibition
1,Cc1ccc(C(=O)Nc2sc(-c3ccccc3)cc2C(N)=O)cc1O,100%
2,NC(=O)c1c(NC(=O)c2cn[nH]c2)sc2c1CCCC2,100%
3,Cc1csc(NC(=O)c2ccc(S(C)(=O)=O)cc2)c1C(N)=O,100%
4,CN1CCc2c(sc(NC(=O)CCCc3c[nH]c4ccccc34)c2C(N)=O)C1,100%
5,CC(C)c1cc(C(N)=O)c(NC(=O)/C=C\c2ccccc2)s1,100%
6,Cc1csc(NC(=O)CS(=O)(=O)c2ccccc2)c1C(N)=O,100%
7,Cc1sc(NC(=O)c2cc(Cl)ccc2Cl)c(C(N)=O)c1C,100%
8,C=CCN(C(C)=O)C(=O)CNc1sc(-c2ccccc2)cc1C(N)=O,100%
9,CC(C)c1cc(C(N)=O)c(NC(=O)c2ccc(O)cc2)s1,100%
10,CC(c1ccccc1)c1cc(C(N)=O)c(NC(=O)c2cccc3cccnc23)s1 (stereo unspecified),100%
11,NC(=O)c1c(NC(=O)c2ccncc2)sc2c1CCCC2,100%
12,CC(C)C(C(=O)O)N(C(N)=O)c1sc(Cc2ccccc2)cc1C(N)=O (stereo unspecified),100%
13,NC(=O)c1cc(-c2ccccc2)sc1NC(=O)/C=C/c1cccs1,100%
14,CC(c1ccccc1)c1cc(C(N)=O)c(NC(=O)C2CCc3ccccc3C2)s1 (stereo unspecified),100%
15,Cc1c(O)cccc1C(=O)Nc1sc(-c2ccccc2)cc1C(N)=O,100%
16,COc1cccc(OC)c1C(=O)Nc1sc(C)c(C)c1C(N)=O,100%
17,Cc1ccc(C(=O)Nc2sc(C(C)C)cc2C(N)=O)c(C)c1,100%
18,CC(C)c1cc(C(N)=O)c(NC(=O)C2CNC(=O)N2)s1 (stereo unspecified),100%

row,SMILES,inhibition
1,CN1CCc2c(sc(NC(=O)CCc3nc4c([nH]3)c(=O)n(C)c(=O)n4C)c2C(N)=O)C1,100%
2,COc1ccc2cc(C(=O)Nc3scc(C)c3C(N)=O)[nH]c2c1,100%
3,NC(=O)c1cc(Cc2ccccc2)sc1NC(=O)/C=C/c1ccccc1O,100%
4,NC(=O)c1cc(-c2ccccc2)sc1NC(=O)c1ccc2cc[nH]c2c1,100%
5,CC(C)c1cc(C(N)=O)c(NC(=O)C(C)c2ccccc2)s1 (stereo unspecified),100%
6,NC(=O)c1c(NC(=O)CCCl)sc2c1CCCC2,100%
7,Cc1sc(NC(=O)/C=C\c2ccc(N(C)C)cc2)c(C(N)=O)c1C,100%
8,C/C(=C/c1ccccc1)C(=O)Nc1sc(-c2ccccc2)cc1C(N)=O,100%
9,Cc1csc(NC(=O)c2ccccc2S(C)(=O)=O)c1C(N)=O,100%
10,NC(=O)c1c(NC(=O)c2c[nH]nc2N)sc2c1CCCC2,100%
11,CC(=O)N[C@@H](CC(N)=O)C(=O)Nc1sc(C(C)c2ccccc2)cc1C(N)=O (stereo partly specified),100%
12,CC(C)c1cc(C(N)=O)c(NC(=O)c2cccc(F)c2)s1,100%
13,Cc1csc(NC(=O)CNC(=O)c2ccccc2O)c1C(N)=O,100%
14,Cc1ccc(CC(=O)Nc2sc(C(C)C)cc2C(N)=O)cc1,100%
15,Cc1cccc(C(=O)Nc2sc(-c3ccccc3)cc2C(N)=O)c1O,100%
16,CC(c1ccccc1)c1cc(C(N)=O)c(NC(=O)c2cccc3c2C(=O)N=N3)s1 (stereo unspecified),100%
17,CN1CCc2c(sc(NC(=O)c3cccc(I)c3)c2C(N)=O)C1,100%

# Further lines, results first:
row,inhibition,SMILES
1,100%,NC(=O)c1cc(-c2ccccc2)sc1NC(=O)Cc1cccc(F)c1
2,100%,COc1ccc(C(=O)Nc2sc(C)c(C)c2C(N)=O)cc1OC
3,100%,N#CC1(C(=O)Nc2sc3c(c2C(N)=O)CCCC3)CC1
4,100%,CC(C)c1cc(C(N)=O)c(NC(=O)CCC(=O)N(C)C)s1
5,100%,C#CC(=O)N(c1ccccc1)c1sc(C(C)C)cc1C(N)=O
6,100%,NC(=O)c1cc(Cc2ccccc2)sc1NC(=O)c1n[nH]c2ccccc12
7,100%,NC(=O)c1cc(-c2ccccc2)sc1NC(=O)CC1CCCCCC1
8,100%,NC(=O)c1cc(Cc2ccccc2)sc1NC(=O)CCN1C(=O)C=CC1=O
9,100%,Cc1sc(NC(=O)c2ccc(Cl)cc2Cl)c(C(N)=O)c1C
10,100%,Cc1cccc(CC(=O)Nc2sc(C(C)C)cc2C(N)=O)c1
11,100%,Cc1sc(NC(=O)c2ccccc2C(F)(F)F)c(C(N)=O)c1C
12,100%,NC(=O)c1cc(-c2ccccc2)sc1NC(=O)c1cc2ccccc2o1
13,100%,Cc1csc(NC(=O)CCNC(=O)c2ccccc2)c1C(N)=O
14,100%,CN1CCc2c(sc(NC(=O)Cc3c[nH]c4cccc(Cl)c34)c2C(N)=O)C1
15,100%,Cc1ccc(C)c(C(=O)Nc2sc(C(C)C)cc2C(N)=O)c1
16,100%,CC(c1ccccc1)c1cc(C(N)=O)c(NC(=O)CC2CCc3ccccc32)s1 (stereo unspecified)
17,100%,NC(=O)c1cc(Cc2ccccc2)sc1NC(=O)/C=C\c1ccc(O)cc1
18,100%,Cc1csc(NC(=O)C(C)NC(=O)c2ccccc2)c1C(N)=O (stereo unspecified)
19,100%,NC(=O)c1c(NC(=O)Cc2ccccc2)sc2c1CCCC2
20,100%,CC(c1ccccc1)c1cc(C(N)=O)c(NC(=O)Cc2cn(C)cn2)s1 (stereo unspecified)
21,100%,CC(=O)NC(=O)C(Nc1sc(-c2ccccc2)cc1C(N)=O)C(C)C (stereo unspecified)
22,100%,CC1=C(C(=O)Nc2sc(C(C)c3ccccc3)cc2C(N)=O)Cc2ccccc21 (stereo unspecified)
23,100%,COc1cc(CC(=O)Nc2scc(C)c2C(N)=O)cc(OC)c1

row,inhibition,SMILES
1,100%,CN1CCc2c(sc(NC(=O)c3ccc(I)cc3)c2C(N)=O)C1
2,100%,CN1CCc2c(sc(NC(=O)C(Cc3c[nH]cn3)NC(=O)c3ccccc3)c2C(N)=O)C1 (stereo unspecified)
3,100%,NC(=O)c1cc(Cc2ccccc2)sc1NC(=O)c1ccc2[nH]cnc2c1
4,100%,COc1cc(OC)c(C(=O)Nc2scc(C)c2C(N)=O)cc1OC
5,100%,NC(=O)c1cc(Cc2ccccc2)sc1NC(=O)c1ccc2c(c1)C=NC2
6,100%,CC(C)c1cc(C(N)=O)c(NC(=O)/C=C/c2ccncc2)s1
7,100%,NC(=O)/C=C\C(=O)N(C(N)=O)c1sc(Cc2ccccc2)cc1C(N)=O
8,100%,COc1ccc2c(c1)C(CC(=O)Nc1sc3c(c1C(N)=O)CCN(C)C3)C(=O)C2 (stereo unspecified)
9,100%,COc1ccc(C(=O)Nc2scc(C)c2C(N)=O)c(OC)c1OC
10,100%,CNC(=O)CN(C(=O)c1ccccc1)c1scc(C)c1C(N)=O
11,100%,CC(=O)N(C#N)c1sc2c(c1C(N)=O)CCCC2
12,100%,CC(c1ccccc1)c1cc(C(N)=O)c(NC(=O)c2nccc3ccccc23)s1 (stereo unspecified)
13,100%,Cc1sc(NC(=O)c2ccc(Cl)c(Cl)c2)c(C(N)=O)c1C
14,100%,Cc1oncc1C(=O)Nc1sc2c(c1C(N)=O)CCCC2
15,100%,Cc1sc(NC(=O)c2cc3cc(O)ccc3[nH]2)c(C(N)=O)c1C
16,100%,NC(=O)c1cc(Cc2ccccc2)sc1NC(=O)COCc1ccccc1
17,100%,NC(=O)c1cc(Cc2ccccc2)sc1NC(=O)/C(F)=C/c1ccccc1
18,100%,Cc1cnc(C(=O)Nc2sc(C(C)C)cc2C(N)=O)cn1
19,100%,CC(=O)Nc1ccc(Br)cc1C(=O)Nc1sc2c(c1C(N)=O)CCN(C)C2
20,100%,COc1cccc(O)c1C(=O)Nc1sc(Cc2ccccc2)cc1C(N)=O
21,100%,CCC(NC(=O)CCl)C(=O)Nc1sc(C)c(C)c1C(N)=O (stereo unspecified)
22,100%,COc1ccc(CC(=O)Nc2scc(C)c2C(N)=O)c(OC)c1
23,100%,NC(=O)c1c(NC(=O)c2cc[nH]c2)sc2c1CCCC2
